Data on 15 compounds can be found in ChEMBL document CHEMBL1133417, “N-[[1-(2-phenylethyl)pyrrolidin-2-yl]methyl]cyclohexanecarboxamides as selective 5-HT1A receptor agonists” (Bioorg Med Chem Lett, 2000).

In assay [1] the target is T1, 5-hydroxytryptamine receptor 1A (Rattus norvegicus, UniProt P19327).
T1 sequence (P19327 whole entry): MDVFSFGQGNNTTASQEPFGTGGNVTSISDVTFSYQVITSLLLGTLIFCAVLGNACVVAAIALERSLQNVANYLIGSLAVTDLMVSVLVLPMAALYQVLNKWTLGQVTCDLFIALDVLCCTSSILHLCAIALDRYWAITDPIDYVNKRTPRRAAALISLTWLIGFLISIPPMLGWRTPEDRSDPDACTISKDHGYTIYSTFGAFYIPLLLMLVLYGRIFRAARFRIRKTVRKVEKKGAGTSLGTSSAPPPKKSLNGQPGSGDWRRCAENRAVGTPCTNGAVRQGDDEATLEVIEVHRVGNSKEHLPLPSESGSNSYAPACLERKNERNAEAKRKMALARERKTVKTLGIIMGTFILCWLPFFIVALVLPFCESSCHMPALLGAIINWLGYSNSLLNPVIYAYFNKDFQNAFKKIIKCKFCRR
Nature of the assay: Inhibitory concentration against binding of 5-hydroxytryptamine 1A receptor from striata of male Wistar rats by displacement of [3H]8-OH-DPAT. Background: Loss of bound radioactivity is the signal in a displacement assay; it reports binding, not function.

The target in assay [2] is T2, Serotonin 2 (5-HT2) receptor (Rattus norvegicus, UniProt P30994+P08909+P14842). Briefly: Inhibitory concentration against 5-hydroxytryptamine 2 receptor from striata of male Wistar rats by displacement of [3H]-ketanserin. The assay is classed as protein assay.
For assay [3], the target named is T3, D(2) dopamine receptor (Homo sapiens, UniProt P14416). Briefly: Inhibitory concentration against binding of Dopamine receptor D2 by displacement of [3H]spiperone.
T3 sequence (P14416 whole entry): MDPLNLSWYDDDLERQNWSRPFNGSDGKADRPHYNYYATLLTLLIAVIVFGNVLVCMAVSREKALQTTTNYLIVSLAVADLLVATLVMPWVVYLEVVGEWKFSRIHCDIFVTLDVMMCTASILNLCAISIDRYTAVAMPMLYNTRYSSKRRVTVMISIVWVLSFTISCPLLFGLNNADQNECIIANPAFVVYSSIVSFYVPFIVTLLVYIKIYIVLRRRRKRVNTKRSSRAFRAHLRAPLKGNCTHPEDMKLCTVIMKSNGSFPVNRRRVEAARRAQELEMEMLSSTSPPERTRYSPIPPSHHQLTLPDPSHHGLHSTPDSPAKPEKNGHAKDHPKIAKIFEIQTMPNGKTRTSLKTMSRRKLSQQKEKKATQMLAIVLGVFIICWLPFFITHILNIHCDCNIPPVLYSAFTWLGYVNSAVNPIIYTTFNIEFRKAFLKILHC
Assay [4] addresses T2, Serotonin 2 (5-HT2) receptor. Nature of the assay: Inhibitory concentration against binding of 5-hydroxytryptamine 2 receptor from striata of male Wistar rats by displacement of [3H]-ketanserin. The format is protein assay.
Assay [5] concerns the target T1, 5-hydroxytryptamine receptor 1A. Nature of the assay: Displacement of [3H]8-OH-DPAT from rat striata 5-hydroxytryptamine 1A receptor.
Assay [6] addresses T2, Serotonin 2 (5-HT2) receptor. Nature of the assay: Binding affinity for 5-hydroxytryptamine 2 receptor from striata of male Wistar rats by displacement of [3H]ketanserin. The assay is classed as protein assay.
In assay [7] the target is T3, D(2) dopamine receptor. Nature of the assay: Binding affinity for Dopamine receptor D2 by displacement of [3H]-spiperone.

Turning to `O=C(NC[C@H]1CCCN1CCc1ccccc1)c1ccccc1`, the values for the IC50 (in assay [1]; in assay [2]; on D(2) dopamine receptor [3]) were > 1 µM, > 1000 nM l-1 and > 1 µM, respectively.
`CN1CCOc2c(C(=O)NC[C@H]3CCCN3CCc3ccccc3)cc(Cl)cc21`: in assay [4], the IC50 is on record as > 1000 nM l-1.
For the compound `O=C(NC[C@@H]1CCCN1CCc1ccccc1)C1CCCCC1`, the Ki in assay [5] came to 0.00049 µM; in assay [6], 240 nM l-1. Besides, at D(2) dopamine receptor [3], the IC50 is > 1 µM.
For the compound `CCCCN1CCC[C@H]1CNC(=O)c1cc(Cl)cc2c1OCCN2C`, the results for the Ki (in assay [6] (read-out: Ki); on D(2) dopamine receptor [7]) were 0.3 µM and 0.012 µM, respectively.
`CN1CCOc2c(C(=O)NC[C@@H]3CCCN3CCc3ccccc3)cc(Cl)cc21`: in assay [6] (read-out: Ki), the Ki came to 0.28 µM.
Regarding `COc1ccc(SC)cc1C(=O)NC[C@@H]1CCCN1CCc1ccccc1`, the Ki amounted to 0.024 µM in assay [5], 170 nM l-1 in assay [6] and 0.46 µM at D(2) dopamine receptor [7].
Turning to `COc1cc2c(c(C(=O)NC[C@@H]3CCCN3CCc3ccccc3)c1)OCC2`, the values for the Ki (in assay [5]; in assay [6]; at D(2) dopamine receptor [7]) were 0.021 µM, 660 nM l-1 and 0.12 µM, respectively.
On to `CSc1cc2c(c(C(=O)NC[C@H]3CCCN3CCc3ccccc3)c1)OCC2`, for which the Ki in assay [5] came out at 0.1 µM; in assay [6] it was 430 nM l-1; at D(2) dopamine receptor [7], 0.0067 µM.
In turn, `CSc1cccc(C(=O)NC[C@H]2CCCN2CCc2ccccc2)c1` gave a Ki in assay [5] of 0.11 µM. The IC50 in assay [4] was > 1000 nM l-1; at D(2) dopamine receptor [3] it was > 1 µM.
Turning to `CSc1cccc(C(=O)NC[C@@H]2CCCN2CCc2ccccc2)c1`, the Ki was 0.0043 µM in assay [5] and 160 nM l-1 in assay [6]. The IC50 on D(2) dopamine receptor [3] is > 1 µM.
For `O=C(c1ccc(F)cc1)C1CCN(CCn2c(=O)[nH]c3ccccc3c2=O)CC1` [KETANSERIN], in assay [1], the IC50 is > 1 µM. Moreover, on D(2) dopamine receptor [7], the Ki was 0.24 µM.
Consider `O=C(NC[C@H]1CCCN1CCc1ccccc1)C1CCCCC1`, for which, in assay [5], the Ki came out at 0.19 µM. The IC50 in assay [2] was > 1000 nM l-1; on D(2) dopamine receptor [3] it was > 1 µM.
`CCCCN1CCC[C@@H]1CNC(=O)c1cc(Cl)cc2c1OCCN2C`: the Ki in assay [6] (read-out: Ki) worked out at 0.086 µM; at D(2) dopamine receptor [7], 0.63 µM.
Regarding `CCCN(CCC)C1CCc2cccc(O)c2C1` (stereo unspecified) [8-OH-DPAT], the IC50 in assay [2] is > 1000 nM l-1.
With `O=C(NC[C@@H]1CCCN1CCc1ccccc1)c1ccccc1`, the Ki in assay [5] was 0.0046 µM; in assay [6], 430 nM l-1. In addition, the IC50 at D(2) dopamine receptor [3] is > 1 µM.
